Measurements from article PMC5971061, “Differential Effects of Linkers on the Activity of Amphiphilic Tobramycin Antifungals” (Molecules : A Journal of Synthetic Chemistry and Natural …, 2018).
In brackets after ≈: the same amount, converted by molar mass.

Columns and labels:
[1] = test system: Cryptococcus neoformans MYA-895; set-up: method as in PMID 26033722; details: previously observed; cited from earlier work
[2] = test system: C. neoformans (strain CN1); experiment: Time-kill assay, CN1; type: cell-based, Cryptococcus neoformans
Procedure: (§1) Time-kill assays were used to assess the inhibitory efficiency of 7b against three yeast strains, C. albicans ATCC 10231 (strain A), C. parapsilosis ATCC 22019 (strain J), and C. neoformans clinical isolate CN1. The protocol for time-kill assays followed methods previously described with minor modifications. Yeast cultures were grown overnight in YPD broth at 35 °C with shaking (200 rpm). A working stock of fungal cells was made by diluting cultures in RPMI 1640 medium to an OD600 of 0.125, approximately 1 × 10^6 CFU/mL. From the working stock, 100 μL of cells was added to 4.9 mL of RPMI 1640 medium in sterile culture tubes, making the starting fungal cell concentration […]. Compounds were then added to the fungal cells. The treatment conditions included sterile control, growth control, TOB (parent; negative control), voriconazole (VOR) at 1× MIC (positive control), 7b at 1× and 4× MIC. The treated fungal cultures were incubated at 35 °C with shaking (200 rpm) for 24 h. The samples were taken from the different treatments at regular time points (0, 3, 6, 9, 12, and 24 h.) and plated in duplicates. For each time point, cultures were vortexed, 100 μL of culture was aspirated, and 10-fold serial dilutions were made in sterile ddH2O. From the appropriate dilutions, 100 μL of fungal suspension was spread on PDA plates and incubated at 35 °C for 48 h before the colony counts were determined. At 24 h, 50 μL of 1 mM resazurin was added to the treatments and incubated at 35 °C with rotation for 2 h in the dark for visual inspection. Experiments were performed in duplicate.

[3] = test system: C. parapsilosis ATCC 22019 (strain J); experiment: Time-kill assay, strain J; type: cell-based, Candida parapsilosis
Procedure: as §1

[4] = test system: C. albicans ATCC 10231 (strain A); experiment: Time-kill assay, strain A; type: cell-based, Candida albicans
Procedure: as §1

[5] = test system: C. albicans ATCC 10231 (strain A); experiment: Membrane permeabilization assay using propidium iodide staining; type: cell-based, Candida albicans; details: 7b at 2× MIC or 4× MIC; TOB 31.3 μg/mL; 2 h treatment; compared to untreated cells
Procedure: A fresh culture of C. albicans ATCC 10231 (strain A) was prepared in 5 mL of YPD broth in a Falcon tube and was grown overnight at 35 °C at 200 rpm. […] TOB (31.3 μg/mL) was used as a negative control. The cell suspensions were then treated for 2 h at 35 °C with continuous agitation (200 rpm). To prepare a positive control sample, C. albicans ATCC 10231 (strain A) cells were killed by heat shock at 95 °C for 5 min as described by Ocampo and Barrientos. The cells were then centrifuged and resuspended in 500 μL of PBS buffer (pH 7.2 adjusted at room temperature). Subsequently, the cells were treated with propidium iodide (9 μM, final concentration) and incubated for 20 min at room temperature in the dark. […] The data were obtained from at least two independent experiments. The images were also post-processed, utilizing automatic contrast and brightness setting in Microsoft PowerPoint 2013 to eliminate background noise.

[6] = test system: C. neoformans clinical isolates CN1-3; experiment: MIC across C. neoformans clinical isolates CN1-3; type: cell-based, Cryptococcus neoformans; details: Cryptococcus neoformans
Procedure: The final concentrations of compounds 3, 4, 7a, 7b, 9, and 16, as well as that of TOB tested in this study ranged from 0.24–62.5 μg/mL. CAS was used as a positive control and the final concentrations tested for CAS ranged from 0.03–31.3 μg/mL. Briefly, overnight yeast cultures were grown in yeast peptone dextrose (YPD) broth and the cell density was adjusted to an OD600 of 0.12 (~1 × 10^6 CFU/mL) by using a spectrophotometer. Yeast cell suspensions were further diluted to achieve 1–5 × 10^3 CFU/mL in RPMI 1640 medium, and 100 μL of these yeast cells was added to 96-well microtiter plates containing RPMI 1640 medium and titrated compounds. Each test was performed in triplicate. The plates were incubated at 35 °C for 48 h.

SMILES	MIC value [1] [µg/mL]	time to complete fungal cell death ([2]; 0.49 μg/mL (1× MIC)) [h]	reduction of CFU ([2]; 0.49 μg/mL (1× MIC), after 3 h of treatment) [log10]	time to complete fungal cell death ([2]; 1.95 μg/mL (4× MIC)) [h]	decrease in CFU ([3]; 1.95 μg/mL (1× MIC), after 24 h of treatment) [log10]	effect on growth (time-kill, in words) ([3]; 7.8 μg/mL (4× MIC), after 24 h)	effect on growth (time-kill, in words) ([3]; 7b at 1.95 μg/mL (1× MIC))	reduction of CFU ([4]; 15.6 μg/mL (4× MIC), after 6 h of treatment) [log10]	reduction of CFU ([4]; 1× MIC (7b 3.9 μg/mL; VOR 1.0 μg/mL), after 9 h of treatment) [log10]	propidium iodide (PI) dye uptake (in words) [5]	effect on growth (time-kill, in words) ([2]; controls TOB 15.6 μg/mL and VOR 1× MIC, 24-h period)	MIC [6] [µg/mL]	effect on growth (time-kill, in words) ([3]; TOB 15.6 μg/mL, 24-h period)	effect on growth (time-kill, in words) ([4]; 24-h period, TOB 15.6 μg/mL, VOR 1× MIC 1.0 μg/mL)
CCCCCCCCCCCCSC[C@H]1O[C@H](O[C@@H]2[C@@H](O)[C@H](O[C@H]3O[C@H](CN)[C@@H](O)C[C@H]3N)[C@@H](N)C[C@H]2N)[C@H](O)[C@@H](N)[C@@H]1O [Compound 3, O-3-Amino-3-deoxy-6-S-dodecyl-6-thio-α-D-glucopyranosyl-(1→6)-O-[2,6-diamino-2,3,6-trideoxy-α-D-ribo-hexopyranosyl-(1→4)]-2-deoxy-D-streptamine]	1.95 (≈ 2.99 µM)	–	–	–	–	–	–	–	–	–	–	–	–	–
CCCCCCCCCCCCc1cn(C[C@H]2O[C@H](O[C@@H]3[C@@H](O)[C@H](O[C@H]4O[C@H](CN)[C@@H](O)C[C@H]4N)[C@@H](N)C[C@H]3N)[C@H](O)[C@@H](N)[C@@H]2O)nn1 [Compound 7b, O-3-Amino-3,6-dideoxy-6-(4-dodecyl-1H-1,2,3-triazol-1-yl)-α-D-glucopyranosyl-(1→6)-O-[2,6-diamino-2,3,6-trideoxy-α-D-ribo-hexopyranosyl-(1→4)]-2-deoxy-D-streptamine]	–	6	≥ 2	3	≥ 2	completely killed	fungistatic effect at 1.95 μg/mL (1× MIC) only for the first 3 h	≥ 2	≥ 2	larger influx of PI dye	–	–	–	–
NC[C@H]1O[C@H](O[C@H]2[C@H](O)[C@@H](O[C@H]3O[C@H](CO)[C@@H](O)[C@H](N)[C@H]3O)[C@H](N)C[C@@H]2N)[C@H](N)C[C@@H]1O [TOB, tobramycin]	–	–	–	–	–	–	–	–	–	negligible staining	little to no growth inhibitory effect	> 62.5	did not affect the growth	did not affect the growth
